Test results published in patent US10259818B2, “Bicyclic azaheterocyclobenzylamines as PI3K inhibitors” (Incyte Corporation, priority 2012, dated 2019).

Each compound was assayed on SUDHL-6 cell line (diffuse large B cell lymphoma) (assay: SUDHL-6 cell proliferation assay (Example B3)). Details: Homo sapiens, SU-DHL-6, 72 h, SUDHL-6 cells, 3 days, Cell Titer-GLO.
Format: cell-based
Experimental: Example B3: SUDHL-6 Cell Proliferation Assay
SUDHL-6 cell line (diffuse large B cell lymphoma) was purchased from ATCC (Manassas, Va.) and maintained in the culture medium recommended (RPMI and 10% FBS). To measure the anti-proliferation activity of the compounds through ATP quantitation, the SUDHL-6 cells was plated with the culture medium (5000 cells/well/per 200 μl) into 96-well polystyrene clear black tissue culture plate (Greiner-bio-one through VWR, NJ) in the presence or absence of a concentration range of test compounds. After 3 days, Cell Titer-GLO Luminescent (Promega, Madison, Wis.) cell culture agent was added to each well for 10 minutes at room temperature to stabilize the luminescent signal. This determines the number of viable cells in culture based on quantitation of the ATP present, which signals the presence of metabolically active cells. Luminescence was measured with the TopCount 384 (Packard Bioscience through Perkin Elmer, Boston, Mass.). […] IC50 data for the Examples is presented in Table 4 determined by the assay of Example B3.

Row | Structure (SMILES) | IC50 [nM]
1 | Cc1nn(C(C)c2cc(Cl)c(F)c3c2OC(C)CN(C2CN(C(=O)OC(C)(C)C)C2)C3)c2ncnc(N)c12 (single isomer, unassigned) [Example 26, tert-Butyl 3-[9-[1-(4-amino-3-methyl-1H-pyrazolo[3,4-d]pyrimidin-1-yl)ethyl]-7-chloro-6-fluoro-2-methyl-2,3-dihydro-1,4-benzoxazepin-4(5H)-yl]azetidine-1-carboxylate] | ≤ 500
2 | Cc1nn(C(C)c2cc(Cl)c(F)c3c2OC[C@H](C)N(S(C)(=O)=O)C3)c2ncnc(N)c12 (single isomer, unassigned) [Example 35] | ≤ 500
3 | Cc1nn(C(C)c2cc(Cl)c(F)c3c2O[C@@H](C)CN(C2CC(C(N)=O)C2)C3)c2ncnc(N)c12 (single isomer, unassigned) [Example 44] | ≤ 500
4 | CC(=O)N1CC(N2Cc3c(C#N)c(Cl)cc(C(C)n4nc(C)c5c(N)ncnc54)c3OC(C)C2)C1 (single isomer, unassigned) [Example 48, 4-(1-Acetylazetidin-3-yl)-9-[1-(4-amino-3-methyl-1H-pyrazolo [3,4-d]pyrimidin-1-yl)ethyl]-7-chloro-2-methyl-2,3,4,5-tetrahydro-1,4-benzoxazepine-6-carbonitrile] | 500 to 1000
5 | Cc1nn(C(C)c2cc(Cl)c(C#N)c3c2OC(C)CN(C2CN(CC(N)=O)C2)C3)c2ncnc(N)c12 (single isomer, unassigned) [Example 50, 2-{3-[9-[1-(4-Amino-3-methyl-1H-pyrazolo[3,4-d]pyrimidin-1-yl)ethyl]-7-chloro-6-cyano-2-methyl-2,3-dihydro-1,4-benzoxazepin-4(5H)-yl]azetidin-1-yl}acetamide] | ≤ 500
6 | Cc1nn(C(C)c2cc(Cl)c(C#N)c3c2OC(C)CN(C2CN(CC(N)=O)C2)C3)c2ncnc(N)c12 (single isomer, unassigned) [Example 53, 2-{3-[9-[1-(4-Amino-3-methyl-1H-pyrazolo[3,4-d]pyrimidin-1-yl)ethyl]-7-chloro-6-cyano-2-methyl-2,3-dihydro-1,4-benzoxazepin-4(5H)-yl]azetidin-1-yl}acetamide] | ≤ 500
7 | Cc1nn(C(C)c2cc(Cl)c(C#N)c3c2OC(C)CN(C2CN(CC(C)(C)O)C2)C3)c2ncnc(N)c12 (single isomer, unassigned) [Example 54, 9-[1-(4-Amino-3-methyl-1H-pyrazolo[3,4-d]pyrimidin-1-yl)ethyl]-7-chloro-4-[1-(2-hydroxy-2-methylpropyl)azetidin-3-yl]-2-methyl-2,3,4,5-tetrahydro-1,4-benzoxazepine-6-carbonitrile] | ≤ 500
8 | Cc1nn(C(C)c2cc(Cl)c(C#N)c3c2OC(C)CN(Cc2cccnc2)C3)c2ncnc(N)c12 (single isomer, unassigned) [Example 60, 9-[1-(4-Amino-3-methyl-1H-pyrazolo[3,4-d]pyrimidin-1-yl)ethyl]-7-chloro-2-methyl-4-(pyridin-3-ylmethyl)-2,3,4,5-tetrahydro-1,4-benzoxazepine-6-carbonitrile] | ≤ 500
9 | Cc1nn(C(C)c2cc(Cl)c(C#N)c3c2OC(C)CN(CC(C)(C)O)C3)c2ncnc(N)c12 (single isomer, unassigned) [Example 65, 9-[1-(4-Amino-3-methyl-1H-pyrazolo[3,4-d]pyrimidin-1-yl)ethyl]-7-chloro-4-(2-hydroxy-2-methylpropyl)-2-methyl-2,3,4,5-tetrahydro-1,4-benzoxazepine-6-carbonitrile] | ≤ 500
10 | CC(=O)NC1CC(N2Cc3c(C#N)c(Cl)cc(C(C)n4nc(C)c5c(N)ncnc54)c3OC(C)C2)C1 (single isomer, unassigned) [Example 67, N-{3-[9-[1-(4-Amino-3-methyl-1H-pyrazolo[3,4-d]pyrimidin-1-yl)ethyl]-7-chloro-6-cyano-2-methyl-2,3-dihydro-1,4-benzoxazepin-4(5H)-yl]cyclobutyl}acetamide] | ≤ 500
11 | CCC1CN(CCO)Cc2c(C#N)c(Cl)cc(C(C)n3nc(C)c4c(N)ncnc43)c2O1 (single isomer, unassigned) [Example 69, 9-[1-(4-Amino-3-methyl-1H-pyrazolo[3,4-d]pyrimidin-1-yl)ethyl]-7-chloro-2-ethyl-4-(2-hydroxyethyl)-2,3,4,5-tetrahydro-1,4-benzoxazepine-6-carbonitrile] | ≤ 500
12 | Cc1nn(C(C)c2cc(Cl)c(F)c3c2OC(C)CN(C[C@@H](C)O)C3)c2ncnc(N)c12 (single isomer, unassigned) [Example 78] | ≤ 500
13 | COC(=O)N1CC(N2Cc3c(F)c(Cl)cc(C(C)n4nc(C)c5c(N)ncnc54)c3OC(C)C2)C1 (single isomer, unassigned) [Example 80, methyl 3-[9-[1-(4-amino-3-methyl-1H-pyrazolo[3,4-d]pyrimidin-1-yl)ethyl]-7-chloro-6-fluoro-2-methyl-2,3-dihydro-1,4-benzoxazepin-4(5H)-yl]azetidine-1-carboxylate] | ≤ 500
14 | Cc1nn(C(C)c2cc(Cl)c(F)c3c2OC(C)CN(C2CN(S(N)(=O)=O)C2)C3)c2ncnc(N)c12 (single isomer, unassigned) [Example 82, 3-[9-[1-(4-amino-3-methyl-1H-pyrazolo[3,4-d]pyrimidin-1-yl)ethyl]-7-chloro-6-fluoro-2-methyl-2,3-dihydro-1,4-benzoxazepin-4(5H)-yl]azetidine-1-sulfonamide] | ≤ 500
15 | Cc1nn(C(C)c2cc(Cl)c(F)c3c2OC(C)CN(C2CN(C(N)=O)C2)C3)c2ncnc(N)c12 (single isomer, unassigned) [Example 83, 3-[9-[1-(4-amino-3-methyl-1H-pyrazolo[3,4-d]pyrimidin-1-yl)ethyl]-7-chloro-6-fluoro-2-methyl-2,3-dihydro-1,4-benzoxazepin-4(5H)-yl]azetidine-1-carboxamide] | ≤ 500
16 | Cc1nn(C(C)c2cc(Cl)c(F)c3c2O[C@@H](C)CN(C2CN(CC(N)=O)C2)C3)c2ncnc(N)c12 (single isomer, unassigned) [Example 88] | ≤ 500
17 | Cc1nn(C(C)c2cc(Cl)c(C#N)c3c2OC(C)CN(C2CN(S(C)(=O)=O)C2)C3)c2ncnc(N)c12 (single isomer, unassigned) [Example 93, 9-[1-(4-amino-3-methyl-1H-pyrazolo[3,4-d]pyrimidin-1-yl)ethyl]-7-chloro-2-methyl-4-[1-(methylsulfonyl)azetidin-3-yl]-2,3,4,5-tetrahydro-1,4-benzoxazepine-6-carbonitrile] | ≤ 500
18 | CCC(=O)N1CC(N2Cc3c(C#N)c(Cl)cc(C(C)n4nc(C)c5c(N)ncnc54)c3OC(C)C2)C1 (single isomer, unassigned) [Example 95, 9-[1-(4-amino-3-methyl-1H-pyrazolo[3,4-d]pyrimidin-1-yl)ethyl]-7-chloro-2-methyl-4-(1-propionylazetidin-3-yl)-2,3,4,5-tetrahydro-1,4-benzoxazepine-6-carbonitrile] | ≤ 500

Same assay, conditions: SUDHL-6 cells, 3 days, Cell Titer-GLO

Row | Structure (SMILES) | IC50 [nM]
19 | Cc1nn(C(C)c2cc(Cl)c(C#N)c3c2OC(C)CN(C2CN(CC(C)(C)O)C2)C3)c2ncnc(N)c12 (single isomer, unassigned) [Example 55, 9-[1-(4-Amino-3-methyl-1H-pyrazolo[3,4-d]pyrimidin-1-yl)ethyl]-7-chloro-4-[1-(2-hydroxy-2-methylpropyl)azetidin-3-yl]-2-methyl-2,3,4,5-tetrahydro-1,4-benzoxazepine-6-carbonitrile] | ≤ 500
20 | Cc1nn(C(C)c2cc(Cl)c(C#N)c3c2OC(C)CN(CC(C)(C)O)C3)c2ncnc(N)c12 (single isomer, unassigned) [Example 66, 9-[1-(4-Amino-3-methyl-1H-pyrazolo[3,4-d]pyrimidin-1-yl)ethyl]-7-chloro-4-(2-hydroxy-2-methylpropyl)-2-methyl-2,3,4,5-tetrahydro-1,4-benzoxazepine-6-carbonitrile] | ≤ 500
21 | CC(=O)NC1CC(N2Cc3c(C#N)c(Cl)cc(C(C)n4nc(C)c5c(N)ncnc54)c3OC(C)C2)C1 (single isomer, unassigned) [Example 68, N-{3-[9-[1-(4-Amino-3-methyl-1H-pyrazolo[3,4-d]pyrimidin-1-yl)ethyl]-7-chloro-6-cyano-2-methyl-2,3-dihydro-1,4-benzoxazepin-4(5H)-yl]cyclobutyl}acetamide] | ≤ 500
22 | CCC1CN(CCO)Cc2c(C#N)c(Cl)cc(C(C)n3nc(C)c4c(N)ncnc43)c2O1 (single isomer, unassigned) [Example 70, 9-[1-(4-Amino-3-methyl-1H-pyrazolo[3,4-d]pyrimidin-1-yl)ethyl]-7-chloro-2-ethyl-4-(2-hydroxyethyl)-2,3,4,5-tetrahydro-1,4-benzoxazepine-6-carbonitrile] | ≤ 500
23 | Cc1nn(C(C)c2cc(Cl)c(F)c3c2OC(C)CN(C2CN(C(N)=O)C2)C3)c2ncnc(N)c12 (single isomer, unassigned) [Example 84, 3-[9-[1-(4-amino-3-methyl-1H-pyrazolo[3,4-d]pyrimidin-1-yl)ethyl]-7-chloro-6-fluoro-2-methyl-2,3-dihydro-1,4-benzoxazepin-4(5H)-yl]azetidine-1-carboxamide] | ≤ 500
24 | Cc1nn(C(C)c2cc(Cl)c(C#N)c3c2OC(C)CN(C2CN(S(C)(=O)=O)C2)C3)c2ncnc(N)c12 (single isomer, unassigned) [Example 94, 9-[1-(4-amino-3-methyl-1H-pyrazolo[3,4-d]pyrimidin-1-yl)ethyl]-7-chloro-2-methyl-4-[1-(methylsulfonyl)azetidin-3-yl]-2,3,4,5-tetrahydro-1,4-benzoxazepine-6-carbonitrile] | ≤ 500
